According to article PMC11435438, “Cyclin-Dependent Kinase 8 Represents a Positive Regulator of Cytomegalovirus Replication and a Novel Host Target for Antiviral Strategies” (Pharmaceutics, 2024):
Where two headings read alike, the source gives them in different places.

Tests used:
mock-infected HFFs = conditions: cited from earlier work
HCMV AD169-GFP [1] = test system: HCMV AD169-GFP; parameters: method as in PMID 35269635; conditions: GFP-based replication assay in HFFs, mean ± SD; cited from earlier work
HCMV AD169-GFP [2] = test: microbe, parasite or virus in culture; format: cell-based, human cytomegalovirus; conditions: ratio CC50/EC50; HCMV AD169-GFP, HFFs
Procedure: (i.e., 1 × TCID25/7d). Immediately after virus adsorption, the cells were treated with antiviral compounds or solvent control (DMSO). Infections were performed in biological quadruplicates, or as indicated for individual experiments. The cells were fixed by the addition of 150 µL 10% formalin/well 7 d p.i. (Merlin-GFP 14 d p.i.), and washed with PBS. For GFP or YFP quantitation, the Victor X4 microplate reader (PerkinElmer, Waltham, MA, USA) was primarily used, or as a very sensitive alternative, the ImageXpress® Pico device (Molecular Devices LLC, San Jose, CA, USA). Mean EC50 values of antiviral efficacy were calculated on the basis of three experimental replicates or as indicated (measurement of fluorescence values in quadruplicate), and percentage values were provided relative to the solvent control (DMSO).

[3] = test system: HCMV core NEC pUL50-pUL53; test: Nuclear rim localization of viral core NEC pUL50-pUL53 (IF, confocal imaging); format: cell-based, human cytomegalovirus; conditions: 0.5 µM MBV, 5 nM CCT, 2 nM MSC, 0.7 nM BI; HFFs, AD169-UL50-HA MOI 0.05, 7 d p.i.
Procedure: In order to investigate viral protein expression and localization, 3 × 10^5 HFFs were seeded in 6-well plates one day prior to infection with HCMV AD169-UL50-HA (MOI 0.05). After 90 min of viral absorption, cells were treated with 0.5 µM MBV, 5 nM CCT, 2 nM MSC or 0.7 nM BI-1347. The infected cells were fixed at 7 d p.i., before indirect immunofluorescence staining was performed for viral IE1, pUL50, and pUL53, and signals were evaluated by confocal laser-scanning microscopy (Leica Microsystems, TCS SP5, Wetzlar, Germany). The counterstaining of the nuclei was performed with DAPI.

[4] = mock-infected HFFs, Neutral Red assay, mean ± SD

SMILES | CC50 (mock-infected HFFs) | EC50 (HCMV AD169-GFP [1]) | CC50 (mock-infected HFFs; [4]) | SI (selectivity index) (HCMV AD169-GFP [2]) | nuclear rim localization of core NEC pUL50-pUL53 [3]
CC(C)c1cnn2c(NCc3ccccc3-n3cccn3)nc(OC3CCCNC3)nc12 (stereo not drawn) [LDC4297] | > 10000 nM | 9 ± 2 nM |  |  | 
CC(C)Nc1nc2cc(Cl)c(Cl)cc2n1[C@H]1O[C@@H](CO)[C@H](O)[C@@H]1O [MBV, maribavir] |  | 350 ± 420 nM | > 100000 nM | >250 | clear disruption of the smooth rim
Cc1c(Br)c(Br)c2c3c1nc(N1CCNCC1)n3CCC2 [SEL120] |  | 79 ± 1 nM | 5900 ± 3850 nM | 75 | 
